Legend:
giant foxtail = test: Test B pre/postemergence giant foxtail; format: in vivo, Setaria faberii
Method in brief: (§1)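 Test chemicals in a non-phytotoxic solvent mixture with surfactant were sprayed preemergence onto planted seeds and postemergence onto plants 2 to 18 cm tall (1- to 4-leaf stage). After twelve to sixteen days in a greenhouse, injury was visually rated against untreated controls from 0 (no effect) to 10 (complete control).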

morningglory = test: Test B pre/postemergence morningglory; format: in vivo, Ipomoea hederacea
Method in brief: as §1

rice = test: Test B flood test rice; format: in vivo, Oryza sativa
Method in brief: (§2)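 Flood test on plants grown to the 2-leaf stage; treated plants kept in greenhouse twelve to sixteen days, then visually rated against controls on a 0 (no effect) to 10 (complete control) scale.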

duck salad = test: Test B flood test duck salad; format: in vivo, Heteranthera limosa
Method in brief: as §2

common pursiane = test: Test D common purslane; format: in vivo, Portulaca oleracea
Method in brief: (§3)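 Greenhouse pots, seeds in sandy loam; compounds formulated in non-phytotoxic solvent with surfactant; preemergence treatments went on the soil surface within one day of planting. Injury rated visually 14 to 21 days after application on a 0 (none) to 100 (complete control) scale.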

goosegrass = test: Test D goosegrass; format: in vivo, Eleusine indica; conditions: Preemergence, 0 to 100 scale
Method in brief: as §3

purple nutsedge = test: Test D purple nutsedge; format: in vivo, Cyperus rotundus; conditions: Preemergence, 0 to 100 scale
Method in brief: as §3

sandbur = test: Test D sandbur; format: in vivo, Cenchrus echinatus; conditions: Preemergence, 0 to 100 scale
Method in brief: as §3

winter wheat [1] = test: Test E winter wheat; format: in vivo, Triticum aestivum; conditions: Postemergence
Method in brief: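 Visual evaluation versus untreated controls after about 21 to 28 days in the greenhouse. Compound was in a surfactant-containing non-phytotoxic solvent; postemergence plants were treated at the 1- to 4-leaf stage, grown in a 60:40 sandy loam and potting mix blend.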

blackgrass = test: Test E blackgrass; format: in vivo, Alopecurus myosuroides; conditions: Preemergence
green foxtail = test: Test E green foxtail; format: in vivo, Setaria viridis; conditions: Preemergence, 0 to 100 scale
Italian ryegrass = test: Test E Italian ryegrass; format: in vivo, Lolium multiflorum; conditions: Preemergence
winter wheat [2] = test: Test E winter wheat; format: in vivo, Triticum aestivum; conditions: Preemergence
wild oat = test: Test E wild oat; format: in vivo, Avena fatua; conditions: Preemergence
winter barley = test: Test E winter barley; format: in vivo, Hordeum vulgare; conditions: Preemergence
[3] = Postemergence, Rate 125 g/ha, scale of 0 to 10 where 0 is no effect and 10 is complete control
[4] = Postemergence, Rate 250 g/ha, scale 0 to 10, 0 no effect, 10 complete control
[5] = Preemergence, Rate 62 g/ha, scale 0 to 10 (0 no effect, 10 complete control)
[6] = Preemergence, Rate 125 g/ha, scale 0 to 10 (0 no effect, 10 complete control)
[7] = Preemergence, Rate 250 g/ha, scale of 0 to 10 where 0 is no effect and 10 is complete control
[8] = Preemergence, Rate 500 g/ha, scale 0 to 10 (0 no effect, 10 complete control)
[9] = Rate 62 g/ha, Postemergence, scale of 0 to 10 where 0 is no effect and 10 is complete control
[10] = Rate 500 g/ha, Postemergence, scale 0 to 10, 0 no effect, 10 complete control
[11] = Postemergence (flood test species), Rate 125 g/ha, scale of 0 to 10 where 0 is no effect and 10 is complete control
[12] = Rate 62 g/ha, Postemergence section, flood test species, scale of 0 to 10 where 0 is no effect and 10 is complete control
[13] = Rate 250 g/ha, headed Pre-emergence (flood test species), scale 0 to 10 (0 no effect, 10 complete control)
[14] = Rate 500 g/ha, headed Pre-emergence (flood test species), scale 0 to 10 (0 no effect, 10 complete control)
[15] = Rate 500 g/ha, listed under Postemergence (flood test species), scale 0 to 10, 0 no effect, 10 complete control
[16] = Rate 1000 g/ha, Pre-emergence (as headed), scale 0 to 10
[17] = Rate 2000 g/ha, Pre-emergence (as headed), scale 0 to 10
[18] = Rate 16 g/ha, 0 no injury, 100 complete control
[19] = Rate 32 g/ha, 0 no injury, 100 complete control
[20] = Rate 64 g/ha, 0 no injury, 100 complete control
[21] = Rate 125 g/ha, 0 no injury, 100 complete control
[22] = Rate 62 g/ha, 0 to 100 scale, 0 no effect, 100 complete control
[23] = Rate 125 g/ha, 0 to 100 scale (0 no effect, 100 complete control)

CCn1c(=O)on(C(=O)N(c2ccc(Cl)cc2)C(C)C)c1=O [Compound 108]
20: Plant response rating, Wheat (winter) (winter wheat [1]; Rate 125 g/ha, 0 to 100 scale) | Plant response rating, I. Ryegrass (Italian ryegrass; [22]) | Plant response rating, Barley (winter) (winter barley; [23])
65: Plant response rating, Green foxtail (green foxtail; Rate 62 g/ha, 0 no effect, 100 complete control)
98: Plant response rating, Goosegrass (goosegrass; [20]) | Sandbur plant response rating (sandbur; [21]) | Plant response rating, Sandbur (sandbur; Rate 250 g/ha)
90: Plant response rating, Blackgrass (blackgrass; Rate 250 g/ha, 0 to 100 scale) | Plant response rating, Green foxtail (green foxtail; Rate 250 g/ha)
3: Morningglory plant response rating (morningglory; [3]) | Morningglory plant response rating (morningglory; [4]) | Morningglory plant response rating (morningglory; [10])
80: Plant response rating, C. purslane (common pursiane; Rate 500 g/ha, Preemergence; 0 to 100 scale)
45: Plant response rating, I. Ryegrass (Italian ryegrass; [23])
7: Giant foxtail plant response rating (giant foxtail; [3])
0: Morningglory plant response rating (morningglory; [5]) | Plant response rating, Morningglory (morningglory; [6]) | Plant response rating, Morningglory (morningglory; [7]) | Morningglory plant response rating (morningglory; [8]) | Morningglory plant response rating (morningglory; [9]) | Rice plant response rating (rice; [11]) | Rice plant response rating (rice; [12]) | Plant response rating, Rice (rice; Rate 250 g/ha, Postemergence (flood test), scale 0 to 10, 0 is no effect, 10 is complete control) | Rice plant response rating (rice; [13]) | Plant response rating, Rice (rice; [14]) | Rice plant response rating (rice; [15]) | Rice plant response rating (rice; [16]) | Rice plant response rating (rice; [17]) | Ducksalad plant response rating (duck salad; [11]) | Ducksalad plant response rating (duck salad; [12]) | Ducksalad plant response rating (duck salad; [13]) | Plant response rating, Ducksalad (duck salad; [14]) | Ducksalad plant response rating (duck salad; [15]) | Ducksalad plant response rating (duck salad; [16]) | Ducksalad plant response rating (duck salad; [17]) | Ducksalad plant response rating (duck salad; flood test, listed under Postemergence, Rate 250 g/ha, scale 0 to 10, 0 no effect, 10 complete control) | Plant response rating, C. purslane (common pursiane; Rate 16 g/ha; Preemergence; 0 to 100 scale, 0 no injury, 100 complete control) | Plant response rating, C. purslane (common pursiane; Rate 32 g/ha; Preemergence; 0 to 100 scale, 0 no injury, 100 complete control) | Plant response rating, C. purslane (common pursiane; Rate 64 g/ha, Preemergence; 0 to 100 scale, 0 no injury, 100 complete control) | Plant response rating, C. purslane (common pursiane; Rate 125 g/ha, Preemergence; 0 to 100 scale, 0 no injury, 100 complete control) | Plant response rating, C. purslane (common pursiane; Rate 250 g/ha; Preemergence; 0 to 100 scale) | Plant response rating, C. purslane (common pursiane; Rate 500 g/ha; Preemergence; 0 to 100 scale) | Plant response rating, Purple nutsedge (purple nutsedge; [18]) | Plant response rating, Purple nutsedge (purple nutsedge; [19]) | Purple nutsedge plant response rating (purple nutsedge; [20]) | Plant response rating, Sandbur (sandbur; [18]) | Plant response rating, Sandbur (sandbur; [19]) | Plant response rating, Wheat (winter) (winter wheat [1]; Rate 62 g/ha, 0 to 100 scale) | Plant response rating, Wheat (winter) (winter wheat [2]; [22])
100: Plant response rating, Goosegrass (goosegrass; [21]) | Plant response rating, Goosegrass (goosegrass; Rate 250 g/ha) | Plant response rating, Goosegrass (goosegrass; Rate 500 g/ha) | Plant response rating, Sandbur (sandbur; Rate 500 g/ha)
10: Giant foxtail plant response rating (giant foxtail; [5]) | Plant response rating, Giant foxtail (giant foxtail; [6]) | Plant response rating, Giant foxtail (giant foxtail; [7]) | Giant foxtail plant response rating (giant foxtail; [8]) | Purple nutsedge plant response rating (purple nutsedge; [21]) | Plant response rating, Purple nutsedge (purple nutsedge; Rate 250 g/ha) | Plant response rating, Wheat (winter) (winter wheat [2]; [23]) | Plant response rating, Wheat (winter) (winter wheat [2]; Rate 250 g/ha, 0 to 100 scale) | Plant response rating, Barley (winter) (winter barley; [22]) | Plant response rating, Barley (winter) (winter barley; Rate 250 g/ha, 0 to 100 scale)
60: Plant response rating, Goosegrass (goosegrass; [18])
5: Giant foxtail plant response rating (giant foxtail; [9])
95: Plant response rating, I. Ryegrass (Italian ryegrass; Rate 250 g/ha, 0 to 100 scale)
15: Plant response rating, Wild oat (wild oat; [22])
85: Plant response rating, Goosegrass (goosegrass; [19])
8: Giant foxtail plant response rating (giant foxtail; [4]) | Giant foxtail plant response rating (giant foxtail; [10])
75: Plant response rating, Blackgrass (blackgrass; [23])
40: Plant response rating, Wheat (winter) (winter wheat [1]; Rate 250 g/ha, 0 to 100 scale (0 no effect, 100 complete control)) | Plant response rating, Blackgrass (blackgrass; [22])
30: Plant response rating, Purple nutsedge (purple nutsedge; Rate 500 g/ha) | Sandbur plant response rating (sandbur; [20]) | Plant response rating, Wild oat (wild oat; [23])
